Measured values: US20230331718A1, “COMPOSITIONS FOR MODULATING SPLICING” (Skyhawk Therapeutics, Inc., priority 2020, published 2023)

What was measured:
[1] = tested on: SMN2 Splicing D7 (SMN Δ7 transcript); test: SMN Quantitative Splicing Assay (qPCR); format: cell-based, human; details: 24 h, SMA patient fibroblasts (GM03813), 2.5 µM to 0.6 nM
Protocol: Spinal muscular atrophy (SMA) patient fibroblasts (GM03813, Coriell) were plated in 96-well plates at 50,000 cells/well. […] Treated cells were lysed and cDNA synthesized using the Fast Advanced Cells-to-Ct kit (Thermofisher A35378) according to the manufacturer’s instructions. 2 µL of each cDNA were used in qPCR reactions. […] Reactions were run in a Quant Studio 6 qPCR instrument with default settings.

SMN2 Protein = test: SMN Protein Assay (MSD); format: cell-based, human; details: SMA patient fibroblasts, 48 hours, 0.6 nM to 2.5 µM
Protocol: Spinal muscular atrophy (SMA) patient fibroblasts were plated in 96-well plates at 7,000 cells/well. Compounds were added in concentrations ranging from 0.6 nM to 2.5 µM, incubated for 48 hours and the cells were lysed with 100 µL of lysis buffer. 20 µL of lysate was used for SMN protein measurement by Mesoscale Discovery (MSD) assay developed by PharmOptima (Michigan). A standard curve prepared with SMN protein ranging from 1 µg/ml to 19.5pg/ml was used in each MSD plate to calculate the absolute SMN protein amount in each sample.

| SMILES | IC50 ([1]; Homo sapiens, Fibroblast) [nM] | EC50 (SMN2 Protein) [nM] | IC50 [1] [nM] |
| --- | --- | --- | --- |
| CCn1cc(F)c2cc(-c3ncc(N(C)[C@H]4C[C@@H]5CCC(N5)[C@H]4F)nn3)c(O)cc2c1=O [Compound 163, 2-Ethyl-4-fluoro-6-(6-{[(2R,3S,5S)-2-fluoro-8-azabicyclo[3.2.1]octan-3-yl](methyl)amino}-1,2,4-triazin-3-yl)-7-hydroayisoquinolin-1-one] | 0.01 to 15 | 0.01 to 15 |  |
| CN(c1cnc(-c2cc3ccn(C)c(=O)c3cc2O)nn1)[C@@H]1CC2CCC(N2)[C@@H]1F (single isomer, unassigned) [Compound 4A] | 16 to 50 | 16 to 50 |  |
| CN(c1cnc(-c2cc3c(F)cn(C)c(=O)c3cc2O)nn1)[C@H]1CC2CC(F)(F)C(C1)N2 (stereo partly drawn) [Compound 210] | 0.01 to 15 | 0.01 to 15 |  |
| CCc1cc(=O)c2cc(-c3ncc(N(C)[C@H]4C[C@@H]5CCC(N5)[C@H]4F)nn3)c(O)cc2o1 [Compound 118] | 0.01 to 15 | 0.01 to 15 |  |
| CN(c1cnc(-c2cc3occc(=O)c3cc2O)nn1)C1CC2CCC(N2)C1F (stereo not drawn) [Compound 17] | 16 to 50 | 16 to 50 |  |
| Cc1cc(=O)c2cc(O)c(-c3ncc(N(C)C4CC5CCCC(N5)C4F)nn3)cc2o1 (stereo not drawn) [Compound 128] | 16 to 50 | 0.01 to 15 |  |
| [2H]C([2H])([2H])n1nc(F)c2cc(-c3ncc(N(C)[C@H]4C[C@@H]5CCC(N5)[C@H]4F)nn3)c(O)cc2c1=O [Compound 191] | 0.01 to 15 | 0.01 to 15 |  |
| CN(c1cnc(-c2cc3cnn(C)c(=O)c3cc2O)nn1)C1CC2CCCC(N2)C1F (stereo not drawn) [Compound 132] |  | 51 to 100 | 16 to 50 |
| CN(c1cnc(-c2cc3occc(=O)c3cc2O)nn1)[C@@H]1C[C@@]2(C)CC[C@](C)(N2)[C@@H]1F [Compound 59] | 16 to 50 | 16 to 50 |  |
| CN(c1cnc(-c2cc3c(=O)n(C)cnc3cc2O)nn1)C1CC2CCC(N2)[C@H]1F (stereo partly drawn) [Compound 139] | 16 to 50 | 0.01 to 15 |  |
| CCn1cnc2cc(-c3ncc(N(C)C4CC5CCCC(N5)C4F)nn3)c(O)cc2c1=O (stereo not drawn) [Compound 126] | 101 to 500 | 51 to 100 |  |
| Cc1cc(=O)c2cc(O)c(-c3ncc(N(C)[C@@H]4C[C@H]5CCC(N5)[C@@H]4F)nn3)cc2o1 (single isomer, unassigned) [Compound 6A] | 16 to 50 | 0.01 to 15 |  |
| CN(c1cnc(-c2cc3c(=O)n(C)ccc3cc2O)nn1)[C@H]1CC2CC[C@@H](N2)[C@H]1F [Compound 82] | 0.01 to 15 | 0.01 to 15 |  |
| CN(c1cnc(-c2cc3cncnc3cc2O)nn1)C1CC2CCC(N2)[C@H]1F (stereo partly drawn) [Compound 26] | 51 to 100 | 16 to 50 |  |
| CN(c1cnc(-c2cc3ccn(C)c(=O)c3cc2O)nn1)[C@H]1C[C@]2(C)CCC(N2)[C@H]1F [Compound 173] | 16 to 50 | 16 to 50 |  |
| Cc1cc2cc(-c3ncc(N(C)[C@@H]4CC5CCC(N5)[C@@H]4F)nn3)c(O)cc2cn1 (stereo partly drawn) [Compound 43] | 51 to 100 | 16 to 50 |  |
| CN(c1cnc(-c2cc3cc[nH]c(=O)c3cc2O)nn1)[C@@H]1CC2CC[C@H](N2)[C@@H]1F [Compound 170] | 51 to 100 | 16 to 50 |  |
| [2H]C([2H])([2H])n1ccc2cc(-c3ncc(N(C)[C@@H]4CC5CCC(N5)[C@@H]4F)nn3)c(O)cc2c1=O (stereo partly drawn) [Compound 158] | 0.01 to 15 | 0.01 to 15 |  |
| CN(c1cnc(-c2cc3cnn(C)c(=O)c3cc2O)nn1)C1CC2COCC(C1)N2 (stereo not drawn) [Compound 149] | 0.01 to 15 | 51 to 100 |  |
| CN(c1cnc(-c2cc3cncnc3cc2O)nn1)C1CC2CCC(N2)[C@@H]1F (stereo partly drawn) [Compound 25] | 101 to 500 | 501 to 10000 |  |
| CN(c1cnc(-c2cc3ncn(C)c(=O)c3cc2O)nn1)C1CC2CC[C@@](C)(N2)[C@H]1F (stereo partly drawn) [Compound 136] | 0.01 to 15 | 0.01 to 15 |  |
| Cc1coc2cc(-c3ncc(N(C)C4CC5CCC(N5)[C@H]4F)nn3)c(O)cc2c1=O (stereo partly drawn) [Compound 28] | 0.01 to 15 | 0.01 to 15 |  |
| CN(c1cnc(-c2cc3ncn(C)c(=O)c3cc2O)nn1)C1CC2CC[C@](C)(N2)[C@@H]1F (stereo partly drawn) [Compound 135] | 0.01 to 15 | 0.01 to 15 |  |

| SMILES | IC50 ([1]; Homo sapiens, Fibroblast) [nM] | EC50 (SMN2 Protein) [nM] | IC50 [1] [nM] |
| --- | --- | --- | --- |
| CN(c1cnc(-c2cc3occ(C(F)(F)F)c(=O)c3cc2O)nn1)[C@H]1C[C@@H]2CC[C@@H](N2)[C@H]1F [Compound 90] | 16 to 50 | 16 to 50 |  |
| CN(c1cnc(-c2cc3ccncc3cc2O)nn1)C1CC2CCC(N2)C1F (stereo not drawn) [Compound 21] | 101 to 500 | 16 to 50 |  |
| Cc1cc(=O)c2cc(O)c(-c3ncc(N(C)[C@H]4CC5CC[C@@H](N5)[C@H]4F)nn3)cc2o1 (single isomer, unassigned) [Compound 6B] | 0.01 to 15 | 0.01 to 15 |  |
| CN(c1cnc(-c2cc3c(F)cn(C)c(=O)c3cc2O)nn1)[C@@H]1C[C@@]2(C)CCC(N2)[C@@H]1F [Compound 37] | 0.01 to 15 | 0.01 to 15 |  |
| [2H]C([2H])([2H])n1cc(F)c2cc(-c3ncc(N(C)[C@@H]4CC5CC[C@H](N5)[C@@H]4F)nn3)c(O)cc2c1=O [Compound 192] | 0.01 to 15 | 0.01 to 15 |  |
| Cc1cc(=O)c2cc(-c3ncc(N(C)[C@@H]4CC5CCCC(N5)[C@@H]4F)nn3)c(O)cc2o1 (stereo partly drawn) [Compound 111] | 101 to 500 | 51 to 100 |  |
| CN(c1cnc(-c2cc3nccnc3cc2O)nn1)[C@@H]1CC2CC[C@H](N2)[C@@H]1F [Compound 19] | 101 to 500 | 101 to 500 |  |
| CCn1ncc2cc(-c3ncc(N(C)[C@@H]4CC5CC[C@H](N5)[C@@H]4F)nn3)c(O)cc2c1=O [Compound 164] | 51 to 100 | 16 to 50 |  |
| CN(c1cnc(-c2cc3cnccc3cc2O)nn1)[C@@H]1CC2CCC(N2)[C@@H]1F (single isomer, unassigned) [Compound 5A] | 101 to 500 | 101 to 500 |  |
| CN(c1cnc(-c2cc3ccn(C)c(=O)c3cc2O)nn1)C1CC2COCC(C1)N2 (stereo not drawn) [Compound 147] | 0.01 to 15 | 0.01 to 15 |  |
| Cc1cnc2cc(-c3ncc(N(C)[C@@H]4CC5CC[C@H](N5)[C@@H]4F)nn3)c(O)cc2n1 [Compound 53] | 51 to 100 | 101 to 500 |  |
| CN(c1cnc(-c2cc3c(F)cn(C)c(=O)c3cc2O)nn1)[C@H]1C[C@@H]2CCC(N2)[C@H]1F [Compound 66, 4-Fluoro-6-(6-{[(2R,3S,5S)-2-fluoro-8-azabicyclo[3.2.1]octan-3-yl](methyl)amino}-1,2,4-triazin-3-yl)-7-hydroxy-2-methylisoquinolin-1-one] | 0.01 to 15 | 0.01 to 15 |  |
| Cc1coc2cc(-c3ncc(N(C)[C@@H]4CC5CCCC(N5)[C@@H]4F)nn3)c(O)cc2c1=O (stereo partly drawn) [Compound 101] | 0.01 to 15 | 0.01 to 15 |  |
| [2H]C([2H])([2H])n1ncc2cc(-c3ncc(N(C)[C@H]4C[C@@H]5CCC(N5)[C@H]4F)nn3)c(O)cc2c1=O [Compound 181] | 0.01 to 15 | 0.01 to 15 |  |
| Cc1cnc2cc(O)c(-c3ncc(N(C)[C@H]4C[C@@H]5CCC(N5)[C@H]4F)nn3)cc2n1 [Compound 52] | 16 to 50 | 0.01 to 15 |  |
| CN(c1cnc(-c2cc3cnn(C)c(=O)c3cc2O)nn1)[C@@H]1C[C@@]2(C)CC[C@H](N2)[C@@H]1F [Compound 186] | 16 to 50 | 0.01 to 15 |  |
| Cc1cc2cc(-c3ncc(N(C)[C@H]4CC5CC[C@@H](N5)[C@H]4F)nn3)c(O)cc2c(=O)n1C [Compound 206] | 0.01 to 15 | 0.01 to 15 |  |
| CN(c1cnc(-c2cc3ccn(C(F)F)c(=O)c3cc2O)nn1)[C@@H]1CC2CCC(N2)[C@@H]1F (stereo partly drawn) [Compound 156] | 16 to 50 | 0.01 to 15 |  |
| CN(c1cnc(-c2cc3ccncc3cc2O)nn1)C1CC2CCC(N2)[C@H]1F (stereo partly drawn) [Compound 22] | 16 to 50 | 0.01 to 15 |  |
| [2H]C([2H])([2H])N(c1cnc(-c2cc3ncn(C([2H])([2H])[2H])c(=O)c3cc2O)nn1)[C@@H]1CC2CC[C@H](N2)[C@@H]1F [Compound 176] | 16 to 50 | 0.01 to 15 |  |
| CN(c1cnc(-c2cc3ccn(C)c(=O)c3cc2O)nn1)C1CC2CC(F)(F)C(C1)N2 (stereo not drawn) [Compound 142] |  | 0.01 to 15 | 16 to 50 |
| CCc1coc2cc(-c3ncc(N(C)[C@@H]4C[C@H]5CC[C@H](N5)[C@@H]4F)nn3)c(O)cc2c1=O [Compound 93] | 16 to 50 | 16 to 50 |  |
